Assay results from the supplement of paper PMC10307832.

Columns and labels:
Assay in all cases: relative viability (nuclei count vs DMSO), 5 days (fraction); higher = more cells survive
HARA = tested on: HARA
In short: (§1)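 Medians of duplicate plates are given as relative viability. That measure is the nuclei count in treated wells divided by the count in vehicle wells. Counts were taken on 4× images of lung cancer cell lines in 1536-well plates, 5 days after pin-tool dosing the day after seeding with one drug alone or a fixed anchor-drug dose plus five library-drug doses (not always all listed) in √10 steps.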

HCC-15 = tested on: HCC-15
In short: as §1

HOP-62 = tested on: HOP-62
In short: as §1

NCI-H1355 = tested on: NCI-H1355
In short: as §1

NCI-H1395 = tested on: NCI-H1395
In short: as §1

NCI-H1734 = tested on: NCI-H1734
In short: as §1

NCI-H1755 = tested on: NCI-H1755
In short: as §1

NCI-H1792 = tested on: NCI-H1792
In short: as §1

NCI-H1793 = tested on: NCI-H1793
In short: as §1

NCI-H1993 = tested on: NCI-H1993
In short: as §1

NCI-H2170 = tested on: NCI-H2170
In short: as §1

NCI-H2347 = tested on: NCI-H2347
In short: as §1

NCI-H358 = tested on: NCI-H358
In short: as §1

NCI-H522 = tested on: NCI-H522
In short: as §1

NCI-H647 = tested on: NCI-H647
In short: as §1

NCI-H838 = tested on: NCI-H838
In short: as §1

COc1nc(C)cnc1NS(=O)(=O)c1cccnc1-c1ccc(-c2nnco2)cc1 [Zibotentan] + NC(=O)Nc1cc(-c2cccc(F)c2)sc1C(=O)N[C@H]1CCCNC1 [AZD7762] (partner 0.2 µM)
relative viability (HARA; first compound 0.08 µM): 0.254
relative viability (HARA; first compound 0.8 µM): 0.302
relative viability (HARA; first compound 2.53 µM): 0.416
relative viability (HCC-15; first compound 0.08 µM): 1.3
relative viability (HCC-15; first compound 0.253 µM): 1.28
relative viability (HCC-15; first compound 0.8 µM): 1.18
relative viability (HCC-15; first compound 2.53 µM): 1.26
relative viability (HOP-62; first compound 0.08 µM): 0.593
relative viability (HOP-62; first compound 0.253 µM): 0.63
relative viability (HOP-62; first compound 0.8 µM): 0.479
relative viability (HOP-62; first compound 2.53 µM): 0.615
relative viability (NCI-H1355; first compound 0.08 µM): 0.81
relative viability (NCI-H1355; first compound 0.253 µM): 0.858
relative viability (NCI-H1355; first compound 0.8 µM): 0.432
relative viability (NCI-H1355; first compound 2.53 µM): 0.774
relative viability (NCI-H1395; first compound 0.08 µM): 0.417
relative viability (NCI-H1395; first compound 0.253 µM): 0.349
relative viability (NCI-H1395; first compound 0.8 µM): 0.401
relative viability (NCI-H1395; first compound 2.53 µM): 0.441
relative viability (NCI-H1734; first compound 0.08 µM): 0.629
relative viability (NCI-H1734; first compound 0.253 µM): 0.521
relative viability (NCI-H1734; first compound 0.8 µM): 0.499
relative viability (NCI-H1734; first compound 2.53 µM): 0.55
relative viability (NCI-H1755; first compound 0.08 µM): 0.452
relative viability (NCI-H1755; first compound 0.253 µM): 0.464
relative viability (NCI-H1755; first compound 0.8 µM): 0.387
relative viability (NCI-H1755; first compound 2.53 µM): 0.471
relative viability (NCI-H1792; first compound 0.08 µM): 0.899
relative viability (NCI-H1792; first compound 0.253 µM): 0.604
relative viability (NCI-H1792; first compound 0.8 µM): 0.373
relative viability (NCI-H1792; first compound 2.53 µM): 0.822
relative viability (NCI-H1793; first compound 0.08 µM): 0.658
relative viability (NCI-H1793; first compound 0.253 µM): 0.341
relative viability (NCI-H1793; first compound 0.8 µM): 0.37
relative viability (NCI-H1793; first compound 2.53 µM): 0.495
relative viability (NCI-H1993; first compound 0.08 µM): 0.667
relative viability (NCI-H1993; first compound 0.253 µM): 0.778
relative viability (NCI-H1993; first compound 0.8 µM): 0.728
relative viability (NCI-H1993; first compound 2.53 µM): 0.881
relative viability (NCI-H2170; first compound 0.08 µM): 0.979
relative viability (NCI-H2170; first compound 0.253 µM): 0.881
relative viability (NCI-H2170; first compound 0.8 µM): 0.675
relative viability (NCI-H2170; first compound 2.53 µM): 0.881
relative viability (NCI-H2347; first compound 0.08 µM): 0.733
relative viability (NCI-H2347; first compound 0.253 µM): 0.723
relative viability (NCI-H2347; first compound 0.8 µM): 0.742
relative viability (NCI-H2347; first compound 2.53 µM): 0.945
relative viability (NCI-H358; first compound 0.08 µM): 0.48
relative viability (NCI-H358; first compound 0.253 µM): 0.405
relative viability (NCI-H358; first compound 0.8 µM): 0.383
relative viability (NCI-H358; first compound 2.53 µM): 0.667
relative viability (NCI-H522; first compound 0.08 µM): 0.835
relative viability (NCI-H522; first compound 0.253 µM): 0.862
relative viability (NCI-H522; first compound 0.8 µM): 0.773
relative viability (NCI-H522; first compound 2.53 µM): 0.856
relative viability (NCI-H647; first compound 0.08 µM): 0.353
relative viability (NCI-H647; first compound 0.253 µM): 0.302
relative viability (NCI-H647; first compound 0.8 µM): 0.384
relative viability (NCI-H647; first compound 2.53 µM): 0.676
relative viability (NCI-H838; first compound 0.08 µM): 0.91
relative viability (NCI-H838; first compound 0.253 µM): 0.909
relative viability (NCI-H838; first compound 0.8 µM): 0.912
relative viability (NCI-H838; first compound 2.53 µM): 0.956
